Laboratory results: ChEMBL document CHEMBL1201862, “PubChem BioAssay data set” (2004)
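Values below derive from 48-hour exposures of cells grown in 96-well plates, with endpoints linearly interpolated between the two concentrations bracketing the appropriate inhibition level. GI50 marks 50% less growth.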 Activity calls are given as the source filed them. No stated cut-off is given here; in the data, active = GI50 up to about 1.1 µM and inactive = higher.

What was measured:
Assay in all cases: growth of human tumour cells (NCI), 48 h
ACHN = test system: ACHN
CCRF-CEM = test system: CCRF-CEM
EKVX = test system: EKVX
HCC 2998 = test system: HCC 2998
HL-60 = test system: HL-60
HT-29 = test system: HT-29
KM12 = test system: KM12
LOX IMVI = test system: LOX IMVI
M14 = test system: M14
NCI-H23 = test system: NCI-H23
NCI-H460 = test system: NCI-H460
NCI-H522 = test system: NCI-H522
OVCAR-3 = test system: OVCAR-3
PC-3 = test system: PC-3
RXF 393 = test system: RXF 393
SF-268 = test system: SF-268
SK-OV-3 = test system: SK-OV-3
UACC-257 = test system: UACC-257
UO-31 = test system: UO-31
NCI-H226 = test system: NCI-H226

Row | SMILES | GI50 (ACHN) | GI50 (CCRF-CEM) | GI50 (EKVX) | GI50 (HCC 2998) | GI50 (HL-60) | GI50 (HT-29) | GI50 (KM12) | GI50 (LOX IMVI) | GI50 (M14) | GI50 (NCI-H23) | GI50 (NCI-H460) | GI50 (NCI-H522) | GI50 (OVCAR-3) | GI50 (PC-3) | GI50 (RXF 393) | GI50 (SF-268) | GI50 (SK-OV-3) | GI50 (UACC-257) | GI50 (UO-31) | GI50 (NCI-H226)
1 | CC(=O)c1c(C)[n+]([O-])c2cc(Cl)c(Cl)cc2[n+]1[O-] | 17.8 µM (inactive) | 13.7 µM (inactive) | 28.6 µM (inactive) | 21.6 µM (inactive) | 10.4 µM (inactive) | 18.5 µM (inactive) | 10.3 µM (inactive) | 16.8 µM (inactive) | 24.6 µM (inactive) | 26.4 µM (inactive) | 12 µM (inactive) | 12.6 µM (inactive) | 19.9 µM (inactive) | 17.7 µM (inactive) | > 100 µM (inactive) | 28.3 µM (inactive) | 19.4 µM (inactive) | 17.6 µM (inactive) | 14.9 µM (inactive) | –
2 | O=C1CC(Br)c2c(Cl)sc(Cl)c21 (stereo not given) | 12.2 µM (inactive) | 0.403 µM (active) | 17.5 µM (inactive) | 12 µM (inactive) | 2.13 µM (inactive) | 11.4 µM (inactive) | 6.58 µM (inactive) | 1.94 µM (inactive) | 9.75 µM (inactive) | 16.4 µM (inactive) | 18.2 µM (inactive) | 17 µM (inactive) | 2.38 µM (inactive) | 10.8 µM (inactive) | 2.39 µM (inactive) | 6.58 µM (inactive) | 16.7 µM (inactive) | 4 µM (inactive) | 4.06 µM (inactive) | –
3 | O=C(/C=C(\S/C=C(/c1ccccc1)N1CCn2c(C(=O)c3ccccc3)c(C(=O)c3ccccc3)c(C(=O)c3ccccc3)c21)C(=O)c1ccccc1)c1ccccc1 | > 10 µM (inactive) | > 10 µM (inactive) | > 10 µM (inactive) | > 10 µM (inactive) | > 10 µM (inactive) | > 10 µM (inactive) | > 10 µM (inactive) | – | > 10 µM (inactive) | > 10 µM (inactive) | > 10 µM (inactive) | > 10 µM (inactive) | > 10 µM (inactive) | > 10 µM (inactive) | – | > 10 µM (inactive) | > 10 µM (inactive) | > 10 µM (inactive) | – | –
4 | COc1cc2c(c(OC)c1OC)-c1ccc(SC)c(=O)cc1C(CO)C2 (stereo not given) | 0.513 µM (active) | 0.0891 µM (active) | 0.603 µM (active) | 0.185 µM (active) | 0.0682 µM (active) | 0.134 µM (active) | 0.0813 µM (active) | 0.22 µM (active) | 0.103 µM (active) | 0.307 µM (active) | 0.184 µM (active) | 0.0527 µM (active) | 0.164 µM (active) | – | 0.104 µM (active) | 0.146 µM (active) | 0.109 µM (active) | 0.0578 µM (active) | 0.455 µM (active) | 0.279 µM (active)
5 | CC(=O)Oc1ccc2c(c1OC(C)=O)CCC1C2=CC[C@]2(C)C(=O)CCC12 (stereo not given in full) | 11.8 µM (inactive) | 3.37 µM (inactive) | 10.5 µM (inactive) | – | 6.89 µM (inactive) | 17.6 µM (inactive) | 16 µM (inactive) | – | 12.5 µM (inactive) | 21.4 µM (inactive) | 16.4 µM (inactive) | 1.82 µM (inactive) | 2.44 µM (inactive) | 3.24 µM (inactive) | – | 12.1 µM (inactive) | 20.7 µM (inactive) | 25.6 µM (inactive) | 9.57 µM (inactive) | –
6 | NC(Cc1ccc2nc3c4ccccc4c(=O)cc-3oc2c1)C(=O)O (stereo not given) | > 100 µM (inactive) | > 100 µM (inactive) | > 100 µM (inactive) | > 100 µM (inactive) | > 100 µM (inactive) | 71.3 µM (inactive) | > 100 µM (inactive) | 45.8 µM (inactive) | 25.3 µM (inactive) | 17.6 µM (inactive) | > 100 µM (inactive) | – | 74.1 µM (inactive) | > 100 µM (inactive) | > 100 µM (inactive) | > 100 µM (inactive) | > 100 µM (inactive) | 72.1 µM (inactive) | > 100 µM (inactive) | –
7 | O=CC(O)C(O)C(O)COc1cc(CO)cc2c1C(=O)c1ccccc1C2=O (stereo not given) | > 31.6 µM (inactive) | > 100 µM (inactive) | > 100 µM (inactive) | > 100 µM (inactive) | > 100 µM (inactive) | > 100 µM (inactive) | > 100 µM (inactive) | 99.1 µM (inactive) | > 100 µM (inactive) | > 100 µM (inactive) | > 87.3 µM (inactive) | > 100 µM (inactive) | 76.4 µM (inactive) | – | > 100 µM (inactive) | > 100 µM (inactive) | > 100 µM (inactive) | > 100 µM (inactive) | > 100 µM (inactive) | > 100 µM (inactive)
8 | CCOC(=O)C(O)Cc1cnc2ccccc2n1 (stereo not given) | > 100 µM (inactive) | 44.9 µM (inactive) | 73.5 µM (inactive) | > 100 µM (inactive) | – | > 100 µM (inactive) | > 100 µM (inactive) | > 100 µM (inactive) | > 100 µM (inactive) | > 100 µM (inactive) | 92.3 µM (inactive) | 79.3 µM (inactive) | > 100 µM (inactive) | > 100 µM (inactive) | > 100 µM (inactive) | > 100 µM (inactive) | > 100 µM (inactive) | > 100 µM (inactive) | > 100 µM (inactive) | –
9 | Cc1cccc(C)c1NC(=O)C(=O)Cc1nc2ccccc2s1 | > 100 µM (inactive) | > 100 µM (inactive) | > 100 µM (inactive) | > 100 µM (inactive) | > 100 µM (inactive) | > 100 µM (inactive) | > 100 µM (inactive) | > 100 µM (inactive) | > 100 µM (inactive) | > 100 µM (inactive) | > 100 µM (inactive) | > 100 µM (inactive) | > 100 µM (inactive) | – | 50.9 µM (inactive) | > 100 µM (inactive) | > 100 µM (inactive) | > 100 µM (inactive) | > 100 µM (inactive) | > 100 µM (inactive)
10 | C[C@]12CCC(=O)C=C1CC[C@@H]1C2CC[C@@]2(C)C1CC[C@@H]2OC(=O)C12OC1CCC2=O (stereo not given in full) | 15.6 µM (inactive) | 12.2 µM (inactive) | 15.5 µM (inactive) | 20.3 µM (inactive) | 6.9 µM (inactive) | 18.9 µM (inactive) | 18.7 µM (inactive) | 16 µM (inactive) | 18.5 µM (inactive) | 18.8 µM (inactive) | 17.9 µM (inactive) | 10.7 µM (inactive) | 18.9 µM (inactive) | – | 5.16 µM (inactive) | 20 µM (inactive) | 41.7 µM (inactive) | 18 µM (inactive) | 16.5 µM (inactive) | 19.1 µM (inactive)
11 | CC(=O)NC1C(CO)O[C@@H]2OC(C)(C)O[C@H]12 (stereo not given in full) | > 100 µM (inactive) | > 100 µM (inactive) | > 100 µM (inactive) | > 100 µM (inactive) | > 100 µM (inactive) | > 100 µM (inactive) | > 100 µM (inactive) | > 100 µM (inactive) | > 100 µM (inactive) | > 100 µM (inactive) | > 100 µM (inactive) | > 100 µM (inactive) | > 100 µM (inactive) | > 100 µM (inactive) | – | > 100 µM (inactive) | – | > 100 µM (inactive) | > 100 µM (inactive) | –
12 | O=c1[nH]c2c(nc1NC13CC4CC(CC(C4)C1)C3)c(=O)oc1ccccc12 | > 100 µM (inactive) | > 100 µM (inactive) | > 100 µM (inactive) | > 100 µM (inactive) | > 100 µM (inactive) | > 100 µM (inactive) | > 100 µM (inactive) | 31.6 µM (inactive) | 34.3 µM (inactive) | 26.2 µM (inactive) | 70.3 µM (inactive) | 61.1 µM (inactive) | > 100 µM (inactive) | – | 46.1 µM (inactive) | > 100 µM (inactive) | > 100 µM (inactive) | > 100 µM (inactive) | > 100 µM (inactive) | 27.9 µM (inactive)
13 | CC1CNC(c2ccc(COc3ccc(C4=NC(C)CN4)cc3)cc2)=N1 (stereo not given) | > 100 µM (inactive) | 59.6 µM (inactive) | > 100 µM (inactive) | 46.5 µM (inactive) | > 100 µM (inactive) | > 100 µM (inactive) | 27.4 µM (inactive) | > 100 µM (inactive) | 60.1 µM (inactive) | 53.3 µM (inactive) | 23.4 µM (inactive) | 39 µM (inactive) | 34.9 µM (inactive) | 32.1 µM (inactive) | 58.6 µM (inactive) | 54.3 µM (inactive) | 73.1 µM (inactive) | 16.9 µM (inactive) | > 100 µM (inactive) | –
14 | CCOC(=O)C1Oc2ccc([N+](=O)[O-])cc2C1(C)O (stereo not given) | > 100 µM (inactive) | > 100 µM (inactive) | > 100 µM (inactive) | > 100 µM (inactive) | > 100 µM (inactive) | > 100 µM (inactive) | > 100 µM (inactive) | > 100 µM (inactive) | > 100 µM (inactive) | > 100 µM (inactive) | > 100 µM (inactive) | > 100 µM (inactive) | > 100 µM (inactive) | – | > 100 µM (inactive) | > 100 µM (inactive) | > 100 µM (inactive) | > 100 µM (inactive) | > 100 µM (inactive) | > 100 µM (inactive)
15 | CCOC(OC1=C(C#N)CCC1)C(CC)[Se]c1ccccc1 (stereo not given) | 29.8 µM (inactive) | 15.6 µM (inactive) | 35.7 µM (inactive) | 13.6 µM (inactive) | 12.4 µM (inactive) | 26.4 µM (inactive) | 64.4 µM (inactive) | 4.5 µM (inactive) | 15.2 µM (inactive) | 9.98 µM (inactive) | 36.4 µM (inactive) | 13.8 µM (inactive) | 22.1 µM (inactive) | – | 20.9 µM (inactive) | 18.8 µM (inactive) | > 100 µM (inactive) | 80.9 µM (inactive) | 24.2 µM (inactive) | 19.2 µM (inactive)
